Assay results as given in patent US20190331666A1, “METHODS FOR DRUG DISCOVERY USING STEM CELL-DERIVED SCHWANN CELLS” (MEMORIAL SLOAN-KETTERING CANCER CENTER, priority 2016, published 2019).

Legend:
[1] = tested on: sorbitol levels in hESC-SCs; assay: Sorbitol measurement in hESC-SCs; type: cell-based, human; details: high glucose treated hESC-SCs
Method: High glucose, low glucose and drug treated SCs and sensory neurons were subjected to biochemical assays for Sorbitol (abcam, ab118968), glucose (abcam, ab65333), Pyruvate (abcam, ab65342) and 2DG uptake (abcam, ab136955) measurements according to manufacturer's instructions. Data was normalizing according to cell numbers and averaged over 3-6 biological replicates. For validation of the selected hit compound (Bupropion HCL, Sigma, B102), the cells were treated with various concentrations of the compound for dose response analysis. The highest non-toxic dose (0.7 μM-based on optimal sorbitol reduction and viability) was used for follow-up experiments.

[2] = tested on: pyruvate levels in hESC-SCs; assay: Pyruvate measurement in hESC-SCs; type: cell-based, human; details: high glucose
Source text: (§1) High glucose, low glucose and drug treated SCs and sensory neurons were subjected to biochemical assays for Sorbitol (abcam, ab118968), glucose (abcam, ab65333), Pyruvate (abcam, ab65342) and 2DG uptake (abcam, ab136955) measurements according to manufacturer's instructions. Data was normalizing according to cell numbers and averaged over 3-6 biological replicates.

[3] = tested on: patients suffering from neuropathic pain; details: cited from earlier work
[4] = tested on: intracellular glucose levels in hESC-SCs; assay: Intracellular glucose measurement in hESC-SCs; type: cell-based, human; details: high glucose
Source text: as §1

[5] = tested on: high glucose treated hESC-SCs; assay: High content screening for drugs reversing glucose-mediated SC cytotoxicity (Prestwick library); type: cell-based, human; details: 30 mM glucose, compounds at 1 μM, 72 hours
Method: The chemical compound screening was performed using the Prestwick Chemical Library®. RFP-labeled hESC-SCs were plated in 384 well plates (1,000/well) and treated with 30 mM glucose immediately before addition of the compounds. The compounds were added at 1 μM concentration. 72 hours later, the plates were treated with DAPI for ten minutes, washed twice and fixed for total plate imaging. The number of viable cells was quantified for each well by counting the number of DAPI negative, RFP positive cells. The percentage of dead cells were calculated for each well by dividing the number of DAPI positive cells by total RFP positive cells.
Data are presented as mean±SEM and were derived from at least 3 independent experiments. Statistical analysis was performed using the Student t-test (comparing 2 groups) or ANOVA with Dunnett test (comparing multiple groups against control). Distribution of the raw data approximated normal distribution (Kolmogorov Smirnov normality test) for data with sufficient number of replicates to test for normality. Survival analysis was performed using log rank (Mantel-Cox) test. Z-scores for primary hits were calculated as Z=(x−μ)/σ. X is the migration score value and is 3 for all hit compounds. μ is the mean migration score value and a is the standard deviation for all compounds and DMSO controls

[6] = tested on: high glucose treated hESC-SCs; assay: Dose response validation, SC viability / cell death (LDH); type: cell-based, human
Method: To monitor the viability of SCs, cells were assayed for LDH activity using CytoTox 96 cytotoxicity assay kit (Promega, G1780). Briefly, the cells were plated in 96 well plates at 30,000 cells/cm^2. The supernatant and the cell lysate is harvested 24 hours later and assayed for LDH activity using a plate reader (490 nm absorbance). Viability was calculated by dividing the LDH signal of the lysate by total LDH signal (from lysate plus supernatant). The cells were cultured in Schwann cell medium (Sciencell, 1701) on PO/LM/FN coated dishes during the assay. For validation of the selected hit compound (Bupropion HCL, Sigma, B102), the cells were treated with various concentrations of the compound for dose response analysis. The highest non-toxic dose (0.7 μM-based on optimal sorbitol reduction and viability) was used for follow-up experiments.

STZ-treated C57BL6 mice [7] = assay: TUNEL staining of sciatic nerves of STZ-treated mice; type: in vivo; details: oral in chow ~300 mg/kg daily
Method: (§2) All procedures were performed following NIH guidelines, and were approved by the local Institutional Animal Care and Use Committee (IACUC). 3-8 weeks old male C57BL6 mice were treated with one dose IP injection of streptozotocin (180 mg/kg, sigma, 85882) to induce pancreatic beta cell death. Blood glucose levels was measured using a standard glucometer (Freestyle Lite) in weekly intervals starting at one week post-treatment, by drawing a drop of blood from tail tip. BP treatment was initiated one week post-streptozotocin treatment. BP was mixed with standard chow at 1.63 mg/gram of chow to be administered orally at ˜300 mg/kg daily. The dose was calculated on the basis of average daily food intake (5.5 gram/day) and initial body weight (30 grams).

STZ-treated C57BL6 mice [8] = assay: Mouse thermal sensitivity (hot plate) test in STZ-treated mice; type: in vivo; details: seven and eight weeks post STZ, oral in chow ~300 mg/kg daily
Method: as §2, with “grams). Thermal nociception was assessed using the hot plate test. The hot plate (Ugo Basile 35100) consisted of a metal surface (55° C.) with a transparent plexiglass cylinder to contain the mouse. […] Typical baseline latencies are 5-10 seconds, with maximal latencies of 30 seconds.” for “grams).”

STZ-treated C57BL6 mice [9] = assay: Blood glucose in STZ-treated diabetic mice; type: in vivo; details: oral in chow ~300 mg/kg daily
Method: as §2

[10] = tested on: glucose uptake in hESC-SCs; assay: Glucose (2DG) uptake in hESC-SCs; type: cell-based, human; details: high glucose
Source text: as §1

STZ-treated C57BL6 mice [11] = assay: Transmission electron microscopy of myelin in sciatic nerves of STZ-treated mice; type: in vivo; details: oral in chow ~300 mg/kg daily
Method: as §2

rodent GSK3β homologs = details: cited from earlier work

SMILES | IC50 ([1]; Homo sapiens, read-out: IC50 (dose-response in rescuing SC viability and in decreasing sorbitol levels)) | highest non-toxic dose (based on optimal sorbitol reduction and viability) [1] | dose of maximum effect ([1]; dose used for all further studies) | levels of pyruvate [2] | benefit in the treatment of neuropathic pain [3] | intracellular glucose levels [4] | enhancing the viability of high glucose treated hESC-SCs (primary screen) [5] | levels inducing gradual dose-dependent toxicity ([6]; hESC-SCs) | rescuing SC viability ([6]; high glucose treated hESC-SCs, various concentrations) | TUNEL+ apoptotic cells in the sciatic nerves (STZ-treated C57BL6 mice [7]) | response time to thermal stimulation (latency of hind paw withdrawal) (STZ-treated C57BL6 mice [8]) | blood glucose levels (STZ-treated C57BL6 mice [9]) | glucose uptake [10] | percentage of damaged myelin in the sciatic nerves (STZ-treated C57BL6 mice [11]) | IC50 values against rodent GSK3β homologs (rodent GSK3β homologs)
CC(NC(C)(C)C)C(=O)c1cccc(Cl)c1.Cl (stereo not drawn) [BP, 2-(tert-butylamino)-1-(3-chlorophenyl)propan-1-one;hydrochloride] | 263 nM | 0.7 µM | 0.7 | increased | some benefit | reduced | most potent compound | above 2 μM | dose-response | significantly fewer apoptotic cells | significantly improved response time | does not affect glucose levels | without affecting | significantly reduced | –
Cc1c[nH]c(-c2cnc(NCCNc3ccc(C#N)cn3)nc2-c2ccc(Cl)cc2Cl)n1 [CHIR99021, 6-(2-(4-(2,4-dichlorophenyl)-5-(4-methyl-1H-imidazol-2-yl)pyrimidin-2-ylamino)ethylamino)nicotinonitrile] | – | – | – | – | – | – | – | – | – | – | – | – | – | – | nanomolar
